Earlier results on 14 compounds are cited in US20240189234A1, “SILICON PARTICLES FOR DRUG DELIVERY” (NACAMED AS, priority 2021, published 2024).

For data set [1] the following is noted: oral.
The conditions of data set [2]: calculated log P values from Foye's Principles of Medicinal Chemistry.

Turning to `C[C@@H]1[C@H](O)[C@@H](C)/C=C/C=C/C=C/C=C/C=C/C=C/C=C/[C@H](O[C@@H]2O[C@H](C)[C@@H](O)[C@H](N)[C@@H]2O)C[C@@H]2O[C@](O)(C[C@@H](O)C[C@@H](O)[C@H](O)CC[C@@H](O)C[C@@H](O)CC(=O)O[C@H]1C)C[C@H](O)[C@H]2C(=O)O` [amphotericin B], the absolute bioavailability result in data set [1] is “very low”. For the compound `CC[C@H]1OC(=O)[C@H](C)[C@@H](O[C@H]2C[C@@](C)(OC)[C@@H](O)[C@H](C)O2)[C@H](C)[C@@H](O[C@@H]2O[C@H](C)C[C@H](N(C)C)[C@H]2O)[C@](C)(O)C[C@@H](C)CN(C)[C@H](C)[C@@H](O)[C@]1(C)O` [azithromycin], the absolute bioavailability in data set [1] is reported as 40%. `CCOc1nc2cccc(C(=O)O)c2n1Cc1ccc(-c2ccccc2-c2nnn[nH]2)cc1` [candesartan]: the absolute bioavailability in data set [1] is reported as 40%. As for `COc1ccc([C@@H]2Sc3ccccc3N(CCN(C)C)C(=O)[C@@H]2OC(C)=O)cc1` [diltiazem], in data set [2], the “log P” value is 4.73. In addition, in data set [1], the absolute bioavailability is recorded as 40%. With `CCOC(=O)[C@H](CCc1ccccc1)N[C@@H](C)C(=O)N1CCC[C@H]1C(=O)O` [enalapril], in data set [2], the “log P” value is recorded as 3.25. In addition, the absolute bioavailability in data set [1] is reported as 60%. For `CC1(C)S[C@@H]2[C@H](NC(=O)COc3ccccc3)C(=O)N2[C@H]1C(=O)O` [phenoxymethylpenicillin], the absolute bioavailability in data set [1] is 50%. With `CC(C)NCC(O)COc1cccc2ccccc12` (stereo not shown) [propranolol], the absolute bioavailability in data set [1] was 26%.

As to `CCCCC(=O)N(Cc1ccc(-c2ccccc2-c2nnn[nH]2)cc1)[C@H](C(=O)O)C(C)C` [valsartan], in data set [1], the absolute bioavailability is on record as 25%. As for `CC[C@]1(O)C[C@@H]2CN(CCc3c([nH]c4ccccc34)[C@@](C(=O)OC)(c3cc4c(cc3OC)N(C)[C@H]3[C@@](O)(C(=O)OC)[C@H](OC(C)=O)[C@]5(CC)C=CCN6CC[C@]43[C@@H]65)C2)C1` [vinblastine], in data set [2], the “log P” value is on record as 5.92. `CC[C@]1(O)C[C@H]2CN(CCc3c([nH]c4ccccc34)[C@@](C(=O)OC)(c3cc4c(cc3OC)N(C=O)[C@H]3[C@@](O)(C(=O)OC)[C@H](OC(C)=O)[C@]5(CC)C=CCN6CC[C@]43[C@@H]65)C2)C1` [vincristine]: in data set [2], the “log P” value was 5.75. As for `CC[C@]1(O)C[C@@H]2CN(CCc3c([nH]c4ccccc34)[C@@](C(=O)OC)(c3cc4c(cc3OC)N(C)[C@H]3[C@@](O)(C(N)=O)[C@H](O)[C@]5(CC)C=CCN6CC[C@]43[C@@H]65)C2)C1` [vindesine], the “log P” value in data set [2] was 4.94. On to `CC(=O)CC(c1ccccc1)c1c(O)c2ccccc2oc1=O` (stereo not shown) [warfarin], for which, in data set [2], the “log P” value is 3.13. With `CN(C)C/C=C(/c1ccc(Br)cc1)c1cccnc1` [zimeldine], the “log P” value in data set [2] is 3.07.

For the compound iodoquinol, the “log P” value in data set [2] is 4.10.

As a reminder, the log P is the decadic logarithm of the partition coefficient of the neutral form, usually between octanol and water.
